# pIC50: −log10 of the molar value.
# Columns and labels:
# [1] = target: T1, plasmin (Homo sapiens, UniProt P00747); test: in vitro serine protease inhibition profile: plasmin; assay type: biochemical
# T1 construct: panel of serine proteases: uPA, tPA, thrombin, plasmin, FXIIa
# [2] = target: tryptase (Homo sapiens, UniProt Q15661); test: in vitro serine protease inhibition profile: tryptase; assay type: biochemical
# [3] = target: T2, matriptase (Homo sapiens, UniProt Q9Y5Y6); test: in vitro serine protease inhibition profile: matriptase; assay type: biochemical
# T2 sequence (Q9Y5Y6 1-855): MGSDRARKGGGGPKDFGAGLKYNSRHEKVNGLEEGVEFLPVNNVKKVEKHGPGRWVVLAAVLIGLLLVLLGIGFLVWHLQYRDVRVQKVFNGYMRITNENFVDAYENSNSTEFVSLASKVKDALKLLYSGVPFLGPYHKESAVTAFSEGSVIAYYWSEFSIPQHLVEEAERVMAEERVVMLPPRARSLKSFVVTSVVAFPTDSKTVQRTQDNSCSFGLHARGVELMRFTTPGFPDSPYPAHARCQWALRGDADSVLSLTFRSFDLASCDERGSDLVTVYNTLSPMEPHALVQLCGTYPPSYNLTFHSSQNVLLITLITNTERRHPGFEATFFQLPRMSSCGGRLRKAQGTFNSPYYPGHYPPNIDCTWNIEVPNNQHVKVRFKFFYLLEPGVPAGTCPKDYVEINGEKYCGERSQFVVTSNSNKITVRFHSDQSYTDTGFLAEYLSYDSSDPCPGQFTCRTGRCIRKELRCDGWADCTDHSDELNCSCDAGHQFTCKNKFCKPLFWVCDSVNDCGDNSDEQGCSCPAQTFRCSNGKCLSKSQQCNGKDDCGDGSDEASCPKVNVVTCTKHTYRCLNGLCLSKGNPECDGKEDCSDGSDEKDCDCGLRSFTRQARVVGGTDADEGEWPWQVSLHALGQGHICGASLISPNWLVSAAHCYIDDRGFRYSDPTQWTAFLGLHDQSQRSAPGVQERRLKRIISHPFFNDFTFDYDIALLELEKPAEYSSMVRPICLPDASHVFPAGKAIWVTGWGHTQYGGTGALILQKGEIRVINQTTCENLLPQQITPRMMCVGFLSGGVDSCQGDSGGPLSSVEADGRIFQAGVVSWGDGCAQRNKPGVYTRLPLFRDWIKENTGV
# [4] = target: KLK2 (Homo sapiens, UniProt P20151); test: in vitro serine protease inhibition profile: KLK2; assay type: biochemical
# [5] = target: KLK4 (Homo sapiens, UniProt Q9Y5K2); test: in vitro serine protease inhibition profile: KLK4; assay type: biochemical
# [6] = target: T3, FXIIa (Homo sapiens, UniProt P00748); test: in vitro serine protease inhibition profile: FXIIa; assay type: biochemical
# T3 construct: panel of serine proteases: uPA, tPA, thrombin, plasmin, FXIIa
# [7] = target: T4, HNE (Homo sapiens, UniProt P08246); test: in vitro serine protease inhibition profile: HNE; assay type: biochemical
# T4 sequence (P08246 30-267): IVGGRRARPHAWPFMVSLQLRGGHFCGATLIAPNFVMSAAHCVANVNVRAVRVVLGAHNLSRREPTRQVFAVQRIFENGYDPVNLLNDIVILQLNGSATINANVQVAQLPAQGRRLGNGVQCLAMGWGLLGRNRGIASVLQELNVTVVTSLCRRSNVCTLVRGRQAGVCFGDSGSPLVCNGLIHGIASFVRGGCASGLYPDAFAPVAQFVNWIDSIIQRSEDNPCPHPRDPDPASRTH
# [8] = system: ocular tissue damage; test: rat dry eye model, ocular surface damage by fluorescein staining; assay type: in vivo; conditions: dry eye rats
# Experimental: Female Wistar rats (200-300 g, Janvier, Roubaix, France) were kept under standard pathogen-free conditions. Husbandry conditions: room temperature 20-25° C., humidity 50-60% and a day-night cycle of 12 h light/12 h dark. Food and water were available ad libitum. All in vivo manipulations were approved by the Animal Ethical Committee of the University of Antwerp (2013-67) and are in accordance to the ARRIVE guidelines for the use of animals in ophthalmic and vision research.
# To remove the exorbital lacrimal gland, animals were anesthetized with an intraperitoneal injection of 25 mg/kg ketamine (Anesketin®, Eurovet, Bladel, Netherlands) and 2.5 mg/kg xylazine (Rompun®, Bayer, Leverkusen, Germany). Routine manipulations (tear collection, fluorescein staining) were performed after induction with 5% isoflurane (Halocarbon®, New Jersey, USA), followed by a maintenance dosage of 1.5%.
# To remove the gland, a small incision was made beneath the right ear. The lacrimal glands of the left eye were kept intact, leaving each animal with its own individual control and eliminating the need for extra control groups. Progression of dry eye was monitored for 24 days and tear volume measurements and fluorescein staining were performed once a week. Tears were collected twice a week.
# Sodium-fluorescein (1%, Sigma-Aldrich, Seelze, Germany) in phosphate buffered saline (PBS, Gibco® by LifeTechnologies Europe, Gent, Belgium) was administered topically to the surface of the eye. To avoid false positives, eyes were rinsed after one minute with PBS and excess fluorescein was removed by placing filter paper in the lateral cantus of the eye. The eye was photographed with a microscopic lens (Photo adapter 1.0 MC 80 DX-Axiovert 25 CA, Carl Zeiss AB, Gottingen, Germany) in a darkened room under cobalt blue light. Using the Oxford fluorescein grading scale, scores from 0 to 5 were given to each eye, depending on ocular staining intensity. Semi-quantitative scoring was done in a blind manner by three independent observers. Evaluation of ocular surface damage was performed every week.
# Tear fluid was obtained twice a week. Tear volume and tissue damage was evaluated once a week. Animals were treated with Restasis® (2×/day), UAMC50, UAMC1162, UAMC1169/vehicle (2×/day) for 3 consecutive weeks. Compounds 1, 2 and 4 were formulated as follows: […]
# [9] = 5 mM formulation, 2x/day, FIG. 4
# tryptase, sequence (Q15661 31-275): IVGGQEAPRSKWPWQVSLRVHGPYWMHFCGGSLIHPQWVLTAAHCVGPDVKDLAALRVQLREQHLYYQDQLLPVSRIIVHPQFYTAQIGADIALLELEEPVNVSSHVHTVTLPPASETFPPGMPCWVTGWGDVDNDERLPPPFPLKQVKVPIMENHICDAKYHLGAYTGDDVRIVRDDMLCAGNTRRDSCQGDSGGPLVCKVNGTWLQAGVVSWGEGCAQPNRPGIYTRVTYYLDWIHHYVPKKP
# T3 sequence (P00748 373-615 limits assumed, other chains not shown): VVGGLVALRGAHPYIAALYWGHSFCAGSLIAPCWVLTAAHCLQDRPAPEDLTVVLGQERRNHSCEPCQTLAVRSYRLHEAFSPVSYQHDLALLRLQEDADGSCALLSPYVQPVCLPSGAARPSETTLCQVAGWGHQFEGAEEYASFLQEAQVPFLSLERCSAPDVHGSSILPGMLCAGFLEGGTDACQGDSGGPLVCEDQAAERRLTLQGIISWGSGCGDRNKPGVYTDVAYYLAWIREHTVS
# KLK4, sequence (Q9Y5K2 31-254, species assumed): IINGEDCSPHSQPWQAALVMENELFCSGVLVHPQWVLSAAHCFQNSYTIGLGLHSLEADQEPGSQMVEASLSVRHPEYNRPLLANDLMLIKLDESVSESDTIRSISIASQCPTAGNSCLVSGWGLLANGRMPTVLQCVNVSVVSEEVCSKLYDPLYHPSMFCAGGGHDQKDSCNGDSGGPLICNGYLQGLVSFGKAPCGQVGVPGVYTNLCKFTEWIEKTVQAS
# KLK2, sequence (P20151 25-261, species assumed): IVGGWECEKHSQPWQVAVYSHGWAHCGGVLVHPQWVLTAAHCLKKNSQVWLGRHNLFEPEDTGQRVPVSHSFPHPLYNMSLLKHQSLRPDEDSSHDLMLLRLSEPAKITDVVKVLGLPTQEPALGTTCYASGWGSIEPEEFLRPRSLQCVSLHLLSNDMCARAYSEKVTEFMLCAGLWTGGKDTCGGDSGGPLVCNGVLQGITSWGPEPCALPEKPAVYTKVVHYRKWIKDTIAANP
# T1 sequence (P00747 581-810 limits assumed, species assumed): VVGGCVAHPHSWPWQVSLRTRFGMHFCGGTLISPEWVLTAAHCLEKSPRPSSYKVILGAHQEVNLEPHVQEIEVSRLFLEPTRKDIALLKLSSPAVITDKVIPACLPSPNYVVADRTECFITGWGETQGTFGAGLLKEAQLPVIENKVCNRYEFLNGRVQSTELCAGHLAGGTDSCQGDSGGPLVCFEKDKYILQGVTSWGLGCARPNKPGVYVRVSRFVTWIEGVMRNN
# T1 sequence (P00747 97-580 partner limits assumed, species assumed): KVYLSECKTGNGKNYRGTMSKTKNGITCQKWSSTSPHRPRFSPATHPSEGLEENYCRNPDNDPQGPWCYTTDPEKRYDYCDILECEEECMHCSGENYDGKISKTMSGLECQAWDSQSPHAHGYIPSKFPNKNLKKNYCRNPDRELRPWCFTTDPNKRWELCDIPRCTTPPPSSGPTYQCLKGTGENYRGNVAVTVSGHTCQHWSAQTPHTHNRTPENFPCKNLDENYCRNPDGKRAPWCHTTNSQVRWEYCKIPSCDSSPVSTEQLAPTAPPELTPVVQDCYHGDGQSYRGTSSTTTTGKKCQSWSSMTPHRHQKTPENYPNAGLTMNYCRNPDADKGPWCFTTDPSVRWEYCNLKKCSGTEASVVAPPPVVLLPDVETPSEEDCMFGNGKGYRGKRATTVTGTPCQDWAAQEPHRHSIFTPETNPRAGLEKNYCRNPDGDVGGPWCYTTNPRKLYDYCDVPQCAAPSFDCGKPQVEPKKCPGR
Compound,pIC50 [1],pIC50 [2],pIC50 [3],pIC50 [4],pIC50 [5],pIC50 [6],pIC50 [7],"effect on ocular tissue damage [8, 9]","tissue damage scores ([8]; follow-up experiments, 5 mM and 500 μM, vs untreated, vehicle, Restasis, FIG. 5)","effect on ocular tissue damage ([8]; lower dose (500 μM), day 21)"
COC(=O)NC(Cc1ccc(NC(=N)N)cc1)P(=O)(Oc1ccccc1)Oc1ccccc1 (stereo not drawn) [Compound 1],< 5.60,7.03,7.09,< 5.60,8.05,< 5.60,< 5.60,no effect,,
CC(=O)Nc1ccc(OP(=O)(Oc2ccc(NC(C)=O)cc2)C(Cc2ccc(NC(=N)N)cc2)NC(=O)OCc2ccccc2)cc1 (stereo not drawn) [Compound 4],< 5.60,8.30,8.52,6.94,8.70,5.79,< 5.60,superior effect on ocular tissue damage,lower tissue damage scores,failed to provide an effect on day 21

# Source: patent publication US11638712B2, “Bis(acetamidophenyl) guanidinophenylethylphosphonates for use in the prevention and/or treatment of PAR-related diseases” (Universiteit Antwerpen, priority 2016, dated 2023)
